Experiments:
[1] = tested on: C57BL/6 mice with sepsis induced by bacterial lipopolysaccharide; assay: LPS-induced sepsis: echocardiography; format: in vivo, mouse; conditions: 30 mg/kg i.p. at 0 and 6 h after LPS
Experimental: Female C57BL/6NRJ mice, 10 weeks of age, were purchased from Janvier Labs and housed under 12 h:12 h light:dark cycles with access to food and water ad libitum. The mice were randomly assigned to the two treatment groups, n=5 mice per group. Sepsis was induced by intraperitoneal (i.p.) injection of 5 mg/kg bacterial lipopolysaccharide (Sigma-Aldrich) in all animals. Immediately thereafter and 6 h later, the mice received treatment with 30 mg/kg ABR-238901 or an equivalent volume of PBS administered i.p. The mice were monitored daily to ensure their well-being. All mouse studies were approved by the Animal Research Ethics Committee of Lund University.
Transthoracic echocardiography was performed at baseline before induction of sepsis, and at 6 h, 12 h and 24 h using the Vevo 3100 platform (VisualSonics) equipped with a MX550D imaging transducer. Anesthesia was induced with 2% Isoflurane (AbbVie) and maintained with 1.25% Isoflurane throughout imaging. Hair was removed using depilatory cream before the application of pre-warmed ultrasound gel. Parasternal long axis recordings were performed in the plane containing the aortic valves and a maximal apex view. Analysis was carried out using the VevoLab software (Visual Sonics). Briefly, the perimeter and long axis of the left ventricle were traced at the end of diastole and at the end of systole and used to calculate left ventricular end-systolic and end-diastolic volumes. Left ventricular stroke volume was calculated as the difference between the left ventricular end-diastolic and end-systolic volumes. Left ventricular ejection fraction was calculated as percentage stroke volume out of the end-diastolic volume. Cardiac output was calculated by multiplying the stroke volume with the heart rate at the time of the examination.

[2] = tested on: C57BL/6 mice with MI induced by permanent coronary artery ligation; assay: MI by permanent coronary artery ligation, short-term (3 days) treatment: echocardiography, MRI, scar, infarct size, TUNEL; format: in vivo, mouse; conditions: for Size of the infarction, percentage of the AAR volume, vs PBS: TTC
Description: All mouse studies were approved by the Animal Research Ethics Committee of Lund University. C57BL/6NRJ mice were purchased from Janvier Labs, C57BL/6-Tg(Nr4a1-EGFP/cre)820Khog/J (Nur77-EGFP) and B6;D2-Tg(Myh6*-mCherry)2Mik/J (α-MHC-mCherry) were purchased from the Jackson Laboratory. Nur77-EGFP mice express the fluorescent EGFP protein under the Nur77 promoter. α-MHC-mCherry mice express the red fluorescent Cherry protein under the mouse alpha myosin heavy-chain promoter in cardiomyocytes. We used 8-12 weeks old female mice in all experiments. MI was induced by left coronary artery ligation using a minimal thoracotomy model. Mice were initially anesthetized with 4% isoflurane and the surgical procedure was performed under 1.7% isoflurane. Following heart exposure outside of the thorax through a small thoracic incision, the left coronary artery was permanently ligated using silk 6.0 suture, the heart repositioned, and the thorax was closed with 6.0 prolene monofilament suture.
For short-term experiments, a daily dose of 30 mg/Kg ABR-238901 was diluted in PBS and administered by daily i.p. injections for the first 3 days post-MI, starting immediately after ischemia induction (days 0, 1 and 2) (FIG. 1A).
Ultrasound measurements were performed at day −1 (baseline), 7, and 21 to assess cardiac function using a Vevo 770 echocardiographic imaging system with a 707B probe (VisualSonics, Toronto, Canada). In selected experiments, additional assessment was performed on days 3 and 14. The mice were anesthetized using 1-3% isoflurane and hair was carefully removed using depilatory cream. To maintain body temperature, the mice were placed in supine position on a heated surface (37° C.). Two-dimensional M-mode images were recorded in the parasternal short-axis view at the mid-papillary level. Five complete cardiac cycles were traced to calculate fractional shortening, ejection fraction, left ventricular systolic volume, and left ventricular diastolic volume by using the VisualSonics software.
At 21 days after MI, the hearts were perfused with ice cold PBS and excised under ketamine/xylazine anesthesia. Subsequently the hearts were fixed in 4% (w/v) paraformaldehyde and embedded in paraffin. The hearts were sectioned transversely from the apex to the level of the suture, and 6 μm thick sections were collected at 390 μm intervals. The sections were mounted on glass slides and stained with Van Gieson or Masson trichrome stain for quantitative analysis of scar size. Alarmin S100A8/A9 was detected using mouse anti-S100A8/A9 IgG1 antibody (Abcam, ab 130234, 1:100 dilution, O/N 4° C.). Goat anti-mouse IgG1 HRP-conjugated secondary antibody (Abcam, ab 97240, 1 h RT) was used and the staining was developed with ImmPACT™ DAB (Vector, SK-4105) chromogen as substrate. The slides were subsequently scanned using an Aperio digital pathology slide scanner (Leica Biosystems), and images were captured with the ImageScope software (Leica Biosystems). Left ventricle area and the infarcted area were measured on each section by using the BioPix iQ 2.5.0 software (Biopix AB). The size of the post-MI myocardial scar was expressed as percentage of the left ventricle volume below the coronary ligature.
Magnetic resonance measurements were performed on a 9.4 T horizontal magnet (Agilent, Santa Clara, USA) equipped with Bruker BioSpec AVIII electronics operating with ParaVision 6.0.1 (Bruker, Ettlingen, Germany). The experiments were conducted under general anaesthesia using a mixture of isoflurane (2%) and 98% O2 via a nose cone. Rectal temperature, ECG signal, and breathing rate were monitored throughout the measurements (SA instruments, Stony Brook, USA). During the experiment, the mouse was positioned prone in an animal holder and kept warm to maintain constant body temperature at 36-37° C. ECG and respiration triggered FLASH sequence was used to acquire cinematographic MR image series of the beating heart. […]

[3] = 3 days treatment, MR, not statistically significant

COc1ncc(S(=O)(=O)Nc2cncc(Cl)c2O)cc1Br [ABR-238901, 5-bromo-N-(5-chloro-4-hydroxypyridin-3-yl)-6-methoxypyridine-3-sulfonamide]
Left ventricular ejection fraction (LVEF) ([1]; 12 h): 44.7% | Cardiac output ([1]; 24 h): 9.17 mL/min | Left ventricular ejection fraction (LVEF) ([1]; 24 h): 54.74% | Left ventricular EF, average ([2]; 30 mg/Kg i.p. at 0, 24, 48 h, echocardiography, day 21): 36% | Left ventricular EF vs PBS-treated controls ([2]; 30 mg/Kg i.p. at 0, 24, 48 h, echocardiography, days 3, 7, 21): higher throughout the follow-up period | Increase in cardiac output from day 3 to day 21 ([2]; 3 days treatment, MR): approximately 30% | Cardiac output (CO) ([2]; 3 days treatment, MR, day 3): 8.1 mL/min | Left ventricular EF ([2]; 3 days treatment, MR, day 3): 29% | Left ventricular EF ([2]; 3 days treatment, MR, day 7): 25% | Cardiac output (CO) ([2]; 3 days treatment, MR, day 21): 10.4 mL/min | Left ventricular EF ([2]; 3 days treatment, MR, day 21): 26% | EDV vs PBS-treated MI group [2, 3]: tendency towards lower | ESV vs PBS-treated MI group [2, 3]: tendency towards lower | Size of the infarction, percentage of the AAR volume, vs PBS ([2]; 3 days treatment, day 3 post-MI): smaller | Size of the infarction, percentage of the AAR volume, vs PBS ([2]; 3 days treatment, day 7 post-MI): smaller | Average myocardial scar size vs controls ([2]; 3 days treatment, day 21, Van Gieson staining): tendency towards smaller | Percentage of apoptotic cells in the myocardium (TUNEL) ([2]; day 3 post-MI): significantly reduced

Reference: patent publication US20220378763A1, “COMPOUND FOR TREATMENT OF ACUTE INFLAMMATION IN THE MYOCARDIUM” (CALPROTECT AB, priority 2019, published 2022)
